From patent publication US7192746B2, “α-Isomaltosyltransferase, process for producing the same and use thereof” (Kabushiki Kaisha Hayashibara Seibutsu Kagaku Kenkyujo, priority 2000, dated 2007)
Like-named read-outs stand apart in the source and are kept apart here.

Assays:
Assay type in all cases: biochemical
[1] = test system: α-isomaltosyl-transferring enzyme from Bacillus globisporus N75
Experimental: (§1) The activity of the enzyme was assayed by dissolving panose in 100 mM acetate buffer (pH 6.0) to give a concentration of two percent (w/v) for a substrate solution, adding a 0.5 ml of an enzyme solution to a 0.5 ml of the substrate solution, enzymatically reacting the mixture solution at 35° C. for 30 min, suspending the reaction mixture by boiling for 10 min, and quantifying glucose by the glucose oxidation method. One unit activity of the α-isomaltosyl-transferring enzyme is defined as the enzyme amount that forms one micromole of glucose per minute under the above enzymatic reaction conditions. Throughout the specification, the enzymatic activity of the α-isomaltosyl-transferring enzyme means the unit(s) assayed as above.
(§2) The influence of metal ions on the activity of α-isomaltosyl-transferring enzyme was examined in the presence of 1 mM of a metal ion according to the assay for the enzyme activity.

[2] = test system: α-isomaltosyl-transferring enzyme from Bacillus globisporus C11; test: Influence of metal ions on enzyme activity; conditions: enzyme of Strain C11; for Relative activity: 1 mM metal ion; for Effect on enzyme activity: 1 mM
Experimental: as §1, §2

[3] = test system: α-isomaltosyl-transferring enzyme from Arthrobacter ramosus S1; test: Influence of metal ions on enzyme activity; conditions: enzyme of Strain S1; for Relative activity: 1 mM metal ion; for Effect on enzyme activity: 1 mM
Experimental: as §1, §2

[4] = test system: α-isomaltosyl-transferring enzyme from Bacillus globisporus C9; test: Influence of metal ions on enzyme activity; conditions: enzyme of Strain C9; for Relative activity: 1 mM metal ion; for Effect on enzyme activity: 1 mM
Experimental: as §1
The influence of metal ions on the activity of α-isomaltosyl-transferring enzyme was examined in the presence of 1 mM of each metal-ion according to the assay for the enzyme activity.

[5] = test system: α-isomaltosyl-transferring enzyme from Bacillus globisporus N75; test: Specificity to transferring acceptor; design: key: −: no saccharide transferred product was formed; ±: a saccharide-transferred product formed in an amount of less than one percent to the total sugars; +: a saccharide-transferred product was formed in an amount of over one percent but below 10% to the total sugars; ++: a saccharide-transferred product was formed in an amount of over 10% to the total sugars; conditions: panose as saccharide donor, 10 units/g substrate, 3.2% (w/v), 30° C., pH 6.0, 24 hours
How it was run: (§3)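 Each candidate acceptor was mixed with panose donor at equal concentration, then given 10 units/g substrate of enzyme (purified, or partially purified for strain A19) at 3.2% (w/v) total saccharide. Reactions ran 24 hours at 30° C., pH 6.0, and were scored for presence or absence of transfer product.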

[6] = test system: α-isomaltosyl-transferring enzyme from Bacillus globisporus C11; test: Specificity to transferring acceptor; design: key: −: no saccharide transferred product was formed; ±: a saccharide-transferred product formed in an amount of less than one percent to the total sugars; +: a saccharide-transferred product was formed in an amount of over one percent but below 10% to the total sugars; ++: a saccharide-transferred product was formed in an amount of over 10% to the total sugars; conditions: panose as saccharide donor, 10 units/g substrate, 3.2% (w/v), 30° C., pH 6.0, 24 hours
How it was run: as §3

[7] = test system: α-isomaltosyl-transferring enzyme from Arthrobacter globiformis A19; test: Specificity to transferring acceptor; design: key: −: no saccharide transferred product was formed; ±: a saccharide-transferred product formed in an amount of less than one percent to the total sugars; +: a saccharide-transferred product was formed in an amount of over one percent but below 10% to the total sugars; ++: a saccharide-transferred product was formed in an amount of over 10% to the total sugars; conditions: partially purified enzyme, panose as saccharide donor, 10 units/g substrate, 3.2% (w/v), 30° C., pH 6.0, 24 hours
How it was run: as §3

[8] = test system: α-isomaltosyl-transferring enzyme from Bacillus globisporus C9; test: Specificity to transferring acceptor; design: key: −: no saccharide transferred product was formed; ±: a saccharide-transferred product formed in an amount of less than one percent to the total sugars; +: a saccharide-transferred product was formed in an amount of over one percent but below 10% to the total sugars; ++: a saccharide-transferred product was formed in an amount of over 10% to the total sugars; conditions: panose as saccharide donor, 10 units/g substrate, 3.2% (w/v), 30° C., pH 6.0, 24 hours
How it was run: as §3

[9] = test system: α-isomaltosyl-transferring enzyme from Arthrobacter ramosus S1; test: Specificity to transferring acceptor; design: key: −: no saccharide transferred product was formed; ±: a saccharide-transferred product formed in an amount of less than one percent to the total sugars; +: a saccharide-transferred product was formed in an amount of over one percent but below 10% to the total sugars; ++: a saccharide-transferred product was formed in an amount of over 10% to the total sugars; conditions: panose as saccharide donor, 10 units/g substrate, 3.2% (w/v), 30° C., pH 6.0, 24 hours
How it was run: as §3

[10] = test system: α-isomaltosyl-transferring enzyme from Bacillus globisporus N75; test: Action on saccharides (substrates, TLC); design: key: −: there was found no substrate change before and after the enzymatic reaction; +: there were found both the reduction of substrate and the formation of cyclotetrasaccharide after the enzymatic reaction; conditions: 2 units/g substrate, 2% (w/v) substrate, 30° C., pH 6.0, 24 hours
How it was run: (§4)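 TLC detection used sulfuric acid-methanol coloration for all sugars and diphenylamine-aniline for reducing ones, after development in n-butanol/pyridine/water (6:4:1). Reactions contained 2% (w/v) substrate and 2 units/g substrate of purified enzyme, incubated 24 hours at 30° C., pH 6.0.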

[11] = test system: α-isomaltosyl-transferring enzyme from Bacillus globisporus C11; test: Action on saccharides (substrates, TLC); design: key: −: there was found no substrate change before and after the enzymatic reaction; +: there were found both the reduction of substrate and the formation of cyclotetrasaccharide after the enzymatic reaction; conditions: 2 units/g substrate, 2% (w/v) substrate, 30° C., pH 6.0, 24 hours
How it was run: as §4

[12] = test system: α-isomaltosyl-transferring enzyme from Arthrobacter globiformis A19; test: Action on saccharides (substrates, TLC); design: key: −: there was found no substrate change before and after the enzymatic reaction; +: there were found both the reduction of substrate and the formation of cyclotetrasaccharide after the enzymatic reaction; conditions: partially purified enzyme, 2 units/g substrate, 2% (w/v) substrate, 30° C., pH 6.0, 24 hours
How it was run: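 Purified enzyme (partially purified for A. globiformis A19) at 2 units/g substrate acted on each saccharide at 2% (w/v), pH 6.0, 30° C., 24 h. Pre- and post-reaction mixtures ran on silica gel TLC in n-butanol/pyridine/water (6:4:1). Total sugars were stained by sulfuric acid-methanol and reducing sugars by diphenylamine-aniline.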

[13] = test system: α-isomaltosyl-transferring enzyme from Bacillus globisporus C9; test: Action on saccharides (substrates, TLC); design: key: −: there was found no substrate change before and after the enzymatic reaction; +: there were found both the reduction of substrate and the formation of cyclotetrasaccharide after the enzymatic reaction; conditions: 2 units/g substrate, 2% (w/v) substrate, 30° C., pH 6.0, 24 hours
How it was run: as §4

[14] = test system: α-isomaltosyl-transferring enzyme from Arthrobacter ramosus S1; test: Action on saccharides (substrates, TLC); design: key: −: there was found no substrate change before and after the enzymatic reaction; +: there were found both the reduction of substrate and the formation of cyclotetrasaccharide after the enzymatic reaction; conditions: 2 units/g substrate, 2% (w/v) substrate, 30° C., pH 6.0, 24 hours
How it was run: as §4

[15] = 1 mM metal ion, enzyme of Strain N75

SMILES	Relative activity [1, 15] [%]	Relative activity [2] [%]	Relative activity [3] [%]	Relative activity [4] [%]	other results
[Hg+2] [Hg^2+]	0.5	2	0.1	1	Effect on enzyme activity ([1]; 1 mM, enzyme of Strain N75): greatly inhibited; Effect on enzyme activity [2]: greatly inhibited; Effect on enzyme activity [3]: greatly inhibited; Effect on enzyme activity [4]: greatly inhibited
[Mn+2] [Mn^2+]	101	93		106	
[Ca+2] [Ca^2+]	100	91	103	101	Effect on enzyme activity ([1]; 1 mM, enzyme of Strain N75): neither activated; Effect on enzyme activity [2]: neither activated; Effect on enzyme activity [3]: neither activated; Effect on enzyme activity [4]: neither activated
[Sr+2] [Sr^2+]	91	93	101	101	
[Fe+2] [Fe^2+]			105	96	Relative activity ([3]; listed as Fe^3+): 75%; Relative activity ([4]; listed as Fe^3+): 105%
[Pb+2] [Pb^2+]	69	74	85	89	
[Al+3] [Al^3+]	94	89	93	103	
[Zn+2] [Zn^2+]	75	83	78	88	
[Ni+2] [Ni^2+]	91	89	87	102	
[Ba+2] [Ba^2+]	102	90	97	102	
[Co+2] [Co^2+]	92	89	91	103	
[Mg+2] [Mg^2+]	95	91	99		
OC[C@H]1O[C@H](O[C@H]2[C@H](O)[C@@H](CO)OC(O)[C@@H]2O)[C@H](O)[C@@H](O)[C@@H]1O (stereo partly shown) [Nigerose, nigerose]					Product of transferring reaction, Enzyme of Strain N75 [5]: + (a saccharide-transferred product was formed in an amount of over one percent but below 10% to the total sugars); Product of transferring reaction, Enzyme of Strain C11 [6]: + (a saccharide-transferred product was formed in an amount of over one percent but below 10% to the total sugars); Product of transferring reaction, Enzyme of Stain A19 [7]: + (a saccharide-transferred product was formed in an amount of over one percent but below 10% to the total sugars); Product of transferring reaction, Enzyme of Strain C9 [8]: + (a saccharide-transferred product was formed in an amount of over one percent but below 10% to the total sugars); Product of transferring reaction, Enzyme of Strain S1 [9]: + (a saccharide-transferred product was formed in an amount of over one percent but below 10% to the total sugars); Enzymatic action for forming cyclotetrasaccharide, Enzyme of Strain N75 [10]: −; Enzymatic action for forming cyclotetrasaccharide, Enzyme of Strain C11 [11]: −; Enzymatic action for forming cyclotetrasaccharide, Enzyme of Strain A19 [12]: −; Enzymatic action for forming cyclotetrasaccharide, Enzyme of Strain C9 [13]: −; Enzymatic action for forming cyclotetrasaccharide, Enzyme of Strain S1 [14]: −
OC[C@H]1O[C@@H]2O[C@H]3[C@H](O)[C@@H](O)[C@@H](O[C@H]4[C@H](O)[C@@H](O)[C@@H](O[C@H]5[C@H](O)[C@@H](O)[C@@H](O[C@H]6[C@H](O)[C@@H](O)[C@@H](O[C@H]7[C@H](O)[C@@H](O)[C@@H](O[C@H]8[C@H](O)[C@@H](O)[C@@H](O[C@H]1[C@H](O)[C@H]2O)O[C@@H]8CO)O[C@@H]7CO)O[C@@H]6CO)O[C@@H]5CO)O[C@@H]4CO)O[C@@H]3CO [β-Cyclodextrin, β-cyclodextrin]					Product of transferring reaction, Enzyme of Strain N75 [5]: −; Product of transferring reaction, Enzyme of Strain C11 [6]: −; Product of transferring reaction, Enzyme of Stain A19 [7]: −; Product of transferring reaction, Enzyme of Strain C9 [8]: −; Product of transferring reaction, Enzyme of Strain S1 [9]: −; Enzymatic action for forming cyclotetrasaccharide, Enzyme of Strain N75 [10]: −; Enzymatic action for forming cyclotetrasaccharide, Enzyme of Strain C11 [11]: −; Enzymatic action for forming cyclotetrasaccharide, Enzyme of Strain A19 [12]: −; Enzymatic action for forming cyclotetrasaccharide, Enzyme of Strain C9 [13]: −; Enzymatic action for forming cyclotetrasaccharide, Enzyme of Strain S1 [14]: −
OC[C@H]1O[C@@H]2O[C@H]3[C@H](O)[C@@H](O)[C@@H](O[C@H]4[C@H](O)[C@@H](O)[C@@H](O[C@H]5[C@H](O)[C@@H](O)[C@@H](O[C@H]6[C@H](O)[C@@H](O)[C@@H](O[C@H]7[C@H](O)[C@@H](O)[C@@H](O[C@H]8[C@H](O)[C@@H](O)[C@@H](O[C@H]9[C@H](O)[C@@H](O)[C@@H](O[C@H]1[C@H](O)[C@H]2O)O[C@@H]9CO)O[C@@H]8CO)O[C@@H]7CO)O[C@@H]6CO)O[C@@H]5CO)O[C@@H]4CO)O[C@@H]3CO [γ-Cyclodextrin, γ-cyclodextrin]					Product of transferring reaction, Enzyme of Strain N75 [5]: −; Product of transferring reaction, Enzyme of Strain C11 [6]: −; Product of transferring reaction, Enzyme of Stain A19 [7]: −; Product of transferring reaction, Enzyme of Strain C9 [8]: −; Product of transferring reaction, Enzyme of Strain S1 [9]: −; Enzymatic action for forming cyclotetrasaccharide, Enzyme of Strain N75 [10]: −; Enzymatic action for forming cyclotetrasaccharide, Enzyme of Strain C11 [11]: −; Enzymatic action for forming cyclotetrasaccharide, Enzyme of Strain A19 [12]: −; Enzymatic action for forming cyclotetrasaccharide, Enzyme of Strain C9 [13]: −; Enzymatic action for forming cyclotetrasaccharide, Enzyme of Strain S1 [14]: −
[Cu+2] [Cu^2+]	15	56	2	57	Effect on enzyme activity ([1]; 1 mM, enzyme of Strain N75): also inhibited; Effect on enzyme activity [2]: also inhibited; Effect on enzyme activity [3]: also inhibited; Effect on enzyme activity [4]: also inhibited
O=C(O)CN(CCN(CC(=O)O)CC(=O)O)CC(=O)O [EDTA]		98	91	104	Effect on enzyme activity [1]: nor inhibited; Relative activity [1]: 92%; Effect on enzyme activity [2]: nor inhibited; Effect on enzyme activity [3]: nor inhibited; Effect on enzyme activity [4]: nor inhibited
